“And” between values parts separate entries of the source, which are not always exact repeats. Identical values can stand only once. Values belong to the compound of their own block, whether it stands above or below them.
Key:
[1] = system: thromboxane synthetase (rabbit platelet microsomes); conditions: result in words; cited from earlier work
obese Zucker rats = assay: Antiobesity activity in vivo in obese Zucker rats; design: species or system rat; conditions: 16 to 18 days; for Body Weight Gain: treated minus control
Protocol: Determination of Antiobesity Activity
Thromboxane synthase inhibitors were evaluated for antiobesity activity in vivo. Body weight, food intake and circulating insulin levels were monitored during periods of drug treatment. Analysis of carcass composition was performed at study termination.
Animals, Diets and Drug Administration
Lean and obese male and female Zucker rats bred at Hoffmann-La Roche Inc. (Nutley, NJ) were kept in wire-bottomed individual cages in light (12 hr dark and light cycles beginning at 6 p.m. and 6 a.m., respectively) and temperature-controlled (22°) rooms. All rats were fed chow diet (Ralston Purina Co., St. Louis, MO) ad libitum until one to three weeks before the start of drug treatment, at which time they were trained to consume a high glucose low fat (1% corn oil) diet which is herein referred to as G-70:1% CO. Following the one to three-week training period on G-70:1% CO, the average daily food intake was calculated, and the rats were weighed and divided into groups of four to seven rats each.
The control animals continued to eat the G-70:1% CO diet ad libitum, and the experimental groups were given G-70:1% CO diet containing drug (also fed ad libitum). The amount of drug added to the diet of each experimental group was based on calculations of food consumed per kg body weight using data collected at the end of the training period. […] The period of drug treatment ranged from 16 to 18 days as noted in the legends to the tables and graph. Food intake and body weight were recorded either daily or twice a week throughout the duration of the study. The amount of drug administered was calculated from the food intake per kg body weight for each experimental group. Body weight data are reported as the difference between the body weight gains of control and drug-treated animals. Food intake and insulin data are reported as percent of control.
^a Average duration of treatment was 16 to 18 days.
^b Body weight gain was computed by taking the difference between the
weight gain of treated and control rats.

TXA2 Synthase = assay: TXA2 synthase IC50 as listed in Table I (enzyme source not stated); type: biochemical
Protocol: (§1) Determination of Inhibition of Thromboxane Synthase Activity Isolation of Human Platelet Microsomes
(§2) Assay for Thromboxane Synthase
(§3) To a 12×75 mm tube containing [1-^14 C] PGH2 (2 μg, 0.01 μCi or 0.05 μCi) and inhibitor (1 mM final assay concentration, in 10 μl of ethanol) in 225 μl of phosphate buffer (0.1M, pH 7.5), was added to an aliquot of guinea pig lung microsomes (25 μl, containing 400 μg protein) or an aliquot of human platelet microsomes (25 μl, containing .congruent.[…] protein). The solution was incubated in a 22° water bath for 2 min.; ether (1 ml) and citric acid (25 μMoles) were added, and the tube plunged into an acetone-dry ice bath. The ether extract was transferred to a 1.0 ml Reacti-vial, and the volume reduced under nitrogen to .congruent.50 μl.
(§4) The extract was applied to an I.T.L.C., type SG, glass fiber sheet (Gelman Instrument Co., Ann Arbor, Mich.) and developed in isooctane; methyl ethyl ketone: acetic acid (100:19:1 or 100:9:1) (19). The sheets were air dried and scanned using a Berthold LB 2760 Radiochromatographic Scanner. In certain cases, based on the radiochromatographic profile obtained, the sheets were cut, the appropriate regions placed in scintillation vials, 10 ml of LSC cocktail (Yorktown Research, S. Hackensack, NJ) added, and the relative cpm determined.

[2] = target: T1, thromboxane synthase (Human Platelet Microsomes) (Homo sapiens, UniProt P24557); assay: Thromboxane synthase inhibition, human platelet microsomes; type: biochemical; conditions: enzyme source H = Human Platelet Microsomes; read-out: IC50
T1 construct: Platelets were obtained from 320 ml of whole blood and resuspended in 5.0 ml of Krebs-Hensleit buffer; from tissue; host or cells: human platelets (microsomes, 110,000 g pellet)
T1 sequence (P24557 1-533): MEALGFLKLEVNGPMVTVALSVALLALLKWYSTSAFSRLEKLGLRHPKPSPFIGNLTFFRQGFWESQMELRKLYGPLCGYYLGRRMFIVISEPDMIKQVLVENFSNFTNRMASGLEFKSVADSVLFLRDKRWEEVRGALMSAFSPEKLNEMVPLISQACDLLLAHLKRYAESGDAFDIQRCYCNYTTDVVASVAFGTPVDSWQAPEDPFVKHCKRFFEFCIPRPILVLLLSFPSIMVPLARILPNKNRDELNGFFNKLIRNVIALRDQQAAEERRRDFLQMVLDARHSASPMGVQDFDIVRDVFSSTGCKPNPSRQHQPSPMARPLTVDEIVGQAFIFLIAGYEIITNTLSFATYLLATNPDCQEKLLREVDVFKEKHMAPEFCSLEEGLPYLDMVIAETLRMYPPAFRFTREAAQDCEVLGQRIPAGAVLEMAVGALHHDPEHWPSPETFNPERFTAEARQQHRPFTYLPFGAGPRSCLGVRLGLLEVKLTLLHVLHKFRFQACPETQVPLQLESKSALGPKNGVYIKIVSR
Protocol: (§5) In said assay procedure, microsomes from guinea pig lung or human platelets are added to an endoperoxide intermediate in prostaglandin biosynthesis and the inhibitor in phosphate buffer solution followed by incubation, extraction and determination of the extent of thromboxane synthase inhibition by TLC with radiochromatographic profile analysis.
as §1
Platelets were obtained from 320 ml of whole blood and resuspended in 5.0 ml of Krebs-Hensleit buffer (CA^+2 free). After three consecutive freeze-thawing cycles, homogenization and centrifugation at 12,000 g for 45 min., the 12,000 supernatant was recentrifuged at 110,000 g for 60 min. The resultant pellet was resuspended in phosphate buffer (0.5 ml, 0.1M, pH 7.5) and stored at -70° until use.
(§6) Low specific activity PGH2 (3.3 μCi/μmole) was obtained from Dr. W. E. M. Lands of the University of Michigan. PGH2 of higher specific activity (16.0 μCi/μmole) was purchased from Ran Biochemicals, Tel-Aviv, Israel.
(§7) The inhibitors tested were prepared as solutions (1-10 mg/ml) in 95% ethanol.
as §2, §3, §4

[3] = system: isolated perfused rat pancreas; assay: Insulin secretion by isolated perfused rat pancreas; design: key: insulin AUC ratio: 1st glucose pulse / 2nd pulse with compound; conditions: 16.7 mM glucose, control 1.0 ± 0.04 (n = 5)
Protocol: Determination of Insulin-Secretory Activity in the Isolated Perfused Rat Pancreas
Pancreata were obtained from young adult female Charles River rats weighing from 200-300 g. The animals were anaesthesized with sodium pentobarbitol (45 mg/kg), injected intraperitoneally, and the pancreas with its intact vasculature was removed and connected to an extracorporeal perfusion apparatus.
The basic perfusion solution contained: 133 mM NaCl, 4.4 mM KCl, 2.5 mM MgSO4, 2.4 mM Ca gluconate, 1.5 mM KH2 PO4, 29.4 mM NaHCO3, 4% dextran and 0.2% bovine serum albumin and glucose as discussed below. The perfusion flow rate was kept constant at 4 ml/min. After a 15-20 min equilibration period, the experimental protocol was begun. The pancreatic effluent was collected in either one or four-minute fractions.
The perfusion was run in the following sequence:
30 min 16.7 mM glucose-internal control
30 min 16.7 mM glucose and test compound
5 min 20 mM arginine-to check pancreas viability
Test compounds were dissolved in 90% ethanol to a concentration of 25 mM and then diluted in the perfusion buffer to the desired concentration. The perfusion effluent was collected in one or four min fractions-the samples were checked immediately, aliquoted for submission to radioimmunoassay and stored at -20° C. until the time of assay. The radioimmunoassay of insulin was carried out by a back-titration method using a pure rat insulin standard.
To assess the inhibitory activity of the test compounds, an inhibition index was calculated. The inhibition index is derived by comparing the insulin secretion response from treated versus nontreated pancreas preparations. For each preparation, a ratio of insulin secretion was calculated from the area under the insulin secretion curve of the first pulse of 16.7 mM glucose divided by the area under the curve of the second pulse of 16.7 mM glucose containing compound.

[4] = target: T2, thromboxane synthase (Guinea Pig Lung Microsomes) (Cavia porcellus, UniProt H0UT36); assay: biochemical; conditions: enzyme source G = Guinea Pig Lung Microsomes; read-out: IC50
T2 construct: The lungs were removed, freed of trachea and the majority of blood removed by rinsing the lungs with buffer; from tissue; host or cells: lungs of male guinea pigs (microsomes, 110,000 g pellet)
T2 sequence (H0UT36 entry or part of it): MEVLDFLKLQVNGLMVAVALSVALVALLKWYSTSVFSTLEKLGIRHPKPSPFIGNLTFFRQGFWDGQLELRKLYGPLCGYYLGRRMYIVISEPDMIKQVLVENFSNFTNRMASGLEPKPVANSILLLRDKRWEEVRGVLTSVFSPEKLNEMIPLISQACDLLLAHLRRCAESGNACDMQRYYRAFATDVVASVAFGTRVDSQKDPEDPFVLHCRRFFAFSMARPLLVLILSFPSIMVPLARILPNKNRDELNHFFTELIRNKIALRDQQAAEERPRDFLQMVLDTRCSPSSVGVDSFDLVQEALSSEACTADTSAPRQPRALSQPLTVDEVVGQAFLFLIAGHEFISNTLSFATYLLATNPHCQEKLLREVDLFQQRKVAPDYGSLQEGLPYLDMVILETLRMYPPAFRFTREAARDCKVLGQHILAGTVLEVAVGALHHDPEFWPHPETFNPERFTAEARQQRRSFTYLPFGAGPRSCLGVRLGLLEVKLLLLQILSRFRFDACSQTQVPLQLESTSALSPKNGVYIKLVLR
Protocol: as §5, with “analysis. […]” for “analysis.”
Isolation of Guinea Pig Lung Microsomes
Four male guinea pigs (.congruent.500 g each) were sacrificed by spinal dislocation. The lungs were removed, freed of trachea and the majority of blood removed by rinsing the lungs with buffer (0.1M phosphate pH 7.5) via the pulmonary artery. The lung tissue (18.3 g total wet wt.), was then minced, suspended in three volumes of buffer and homogenized using, initially, a Brinkmann polytron homogenizer and, finally, a glass-teflon tissue grinder. The homogenate was centrifuged at 12,000 g for 1 hr. and the resultant supernatant recentrifuged at 110,000 g for 1 hr. The 110,000 g pellet was taken up in 10 ml of buffer, divided into 5×2 ml aliquots and stored at -70° until use.
as §6, §7, §2, §3, §4

[5] = system: thromboxane synthase from human platelets; conditions: highest potency among the imidazole derivatives tested; read-out: I50; cited from earlier work

SMILES: c1ccncc1 [pyridine]
enzymatic formation of TXB2 from PGH2 [1]: inhibition

SMILES: c1ccc(C(c2ccccc2)(c2ccccc2)n2ccnc2)cc1 [1-(triphenylmethyl)-1H--imidazole, 1-(triphenylmethyl)-1H-imidazole]
IC50 [4]: 10 to 100 µM | IC50 (TXA2 Synthase): 10 to 100 µM | IC50 [2]: 10 to 100 µM | Insulin Secretion Inhibition Index ([3]; 10 μM): 2

SMILES: CC(C)c1ccccc1-n1ccnc1 [1-[2-(1-methylethyl)phenyl]-1H--imidazole]
IC50 [5]: ~0.01 µM | IC50 [2]: ~1 µM

SMILES: S=C(n1ccnc1)n1ccnc1 [1,1'-carbonothioylbis-1H--imidazole, 1,1'-carbonothioylbis-1H-imidazole]
IC50 [4]: 10 to 100 µM | IC50 (TXA2 Synthase): 15 µM | Insulin Secretion Inhibition Index ([3]; 1000 μM): 5

SMILES: c1c[nH]cn1 [1H--imidazole, reference compound]
IC50 [4]: > 100 µM and < 1000 µM | IC50 (TXA2 Synthase): 600 µM | Insulin Secretion Inhibition Index ([3]; 100 μM): 2 | Insulin Secretion Inhibition Index ([3]; 1000 μM): 3

SMILES: CCCCCCCCCn1ccnc1 [1-nonyl-1H--imidazole]
IC50 [5]: ~0.01 µM

Further lines, with some results ahead:

IC50 (TXA2 Synthase): 1 µM | IC50 [2]: ~1 µM
SMILES: c1ccc2c(Cn3ccnc3)c[nH]c2c1 [3-(1H--imidazol-1-ylmethyl)-1H--indole, 3-(1H-imidazol-1-ylmethyl)-1H-indole]
Food Consumption (obese Zucker rats; 18 mg/kg in diet, P ≤ 0.05): 81 ± 1 % of control | Insulin (obese Zucker rats; 18 mg/kg in diet, P ≤ 0.05): 72 ± 9 % of control | Body Weight Gain (obese Zucker rats; 18 mg/kg in diet, P ≤ 0.05): -24 g | Food Consumption (obese Zucker rats; 55 mg/kg in diet, P ≤ 0.05): 63 ± 4 % of control | Insulin (obese Zucker rats; 55 mg/kg in diet, P ≤ 0.05): 12 ± 2 % of control | Body Weight Gain (obese Zucker rats; 55 mg/kg in diet, P ≤ 0.05): -68 g | Insulin Secretion Inhibition Index ([3]; 10 μM): 1 | Insulin Secretion Inhibition Index ([3]; 50 μM): 13 | Insulin Secretion Inhibition Index ([3]; 100 μM): 32

IC50 (TXA2 Synthase): 10 µM | IC50 [2]: ~10 µM
SMILES: CC(C)Oc1ccc(-n2ccnc2)cc1 [1-[4-(1-methylethoxy)phenyl]-1H-imidazole]
Food Consumption (obese Zucker rats; 82 mg/kg in diet, P ≤ 0.05): 80 ± 2 % of control | Insulin (obese Zucker rats; 82 mg/kg in diet, not marked significant): 94 ± 21 % of control | Body Weight Gain (obese Zucker rats; 82 mg/kg in diet, P ≤ 0.05): -18 g | Insulin Secretion Inhibition Index ([3]; 100 μM): 4

IC50 (TXA2 Synthase): 1 µM | IC50 [2]: ~1 µM
SMILES: CC(C)c1[nH]c2ccccc2c1C(=O)c1cccnc1 [[2-(1-methylethyl)-1H-indol-3-yl)]-3-pyridinyl-methanone]
Food Consumption (obese Zucker rats; 94 mg/kg in diet, not marked significant): 89 ± 4 % of control | Body Weight Gain (obese Zucker rats; 94 mg/kg in diet, P ≤ 0.05): -17 g | Insulin Secretion Inhibition Index ([3]; 100 μM): 5
